These results are taken from ChEMBL document CHEMBL4339241, “Meroterpenoids with BACE1 Inhibitory Activity from the Fruiting Body of Boletinus asiaticus” (J Nat Prod, 2019).

The structures appear in SMILES notation.

This assay concerns the target Beta-secretase 1 (Homo sapiens, UniProt P56817). Description: Inhibition of BACE1 (unknown origin) using Rh-EVNNLDAEFK-Quencher substrate incubated for 3 hrs by FRET assay.

Sequence of Beta-secretase 1 (P56817 whole entry): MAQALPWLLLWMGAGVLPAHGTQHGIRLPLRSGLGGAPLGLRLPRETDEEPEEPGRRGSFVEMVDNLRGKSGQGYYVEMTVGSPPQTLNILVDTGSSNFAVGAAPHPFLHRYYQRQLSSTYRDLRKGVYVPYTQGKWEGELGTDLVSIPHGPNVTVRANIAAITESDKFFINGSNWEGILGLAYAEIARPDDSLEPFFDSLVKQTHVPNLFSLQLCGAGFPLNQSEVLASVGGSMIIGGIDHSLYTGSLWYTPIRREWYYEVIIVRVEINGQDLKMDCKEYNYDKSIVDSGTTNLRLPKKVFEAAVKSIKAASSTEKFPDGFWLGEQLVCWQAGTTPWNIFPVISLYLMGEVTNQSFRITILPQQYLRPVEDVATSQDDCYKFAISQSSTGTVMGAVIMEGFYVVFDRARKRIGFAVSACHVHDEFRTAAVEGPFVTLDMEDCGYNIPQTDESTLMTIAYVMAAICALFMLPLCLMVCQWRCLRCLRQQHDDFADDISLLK

As to `C/C(=C\CC/C(C)=C/Cc1cc(C(=O)O)ccc1O)CC/C=C(\C)CC/C=C(\C)C(=O)O`, the half-inhibitory concentration (IC50) (commonly the point on the concentration scale where inhibition reaches its midpoint) came to 2 µM.
Then `C=C(CC/C=C(\C)CC/C=C(\C)C(=O)O)C(O)CC/C(C)=C/Cc1cc(C(=O)O)ccc1O` (racemic), with 14.7 µM; and `C/C(=C\CC/C(C)=C/CCC1(C)C=Cc2cc(C(=O)O)ccc2O1)CC/C=C(\C)C(=O)O` (racemic), with 11.4 µM.
